Experiment [1] concerns Candida albicans. Conditions: in vitro; cited from earlier work.
Experiment [2] has as its system Candida albicans. Conditions: microtiter broth, 25° C., 3-5 days. The protocol:
(§1) The susceptibility of selected pathogens to individual and mixtures of acetic and boric acid was investigated, in vitro. Fresh isolates of Staphylococcus intermedius, Pseudomonas aeruginosa, Candida albicans, Microsporum canis and Malassezia pachydermatis were obtained from VHUP Clinical Veterinary Microbiology Laboratory. Staphylococcus and Pseudomonas were grown on Mueller-Hinton (M-H) broth overnight at approximately 37° C. and fungi were inoculated into Sabourauds Antibiotic broth medium and incubated at 25° C. for 4 days. Stock dilutions (2x) of both boric acid and acetic acid were prepared in M-H broth (for bacteria studies) or in Sabourauds Antibiotic Broth (for fungal studies). These concentrations were 1.0%, 4.0%, 7.5% and 10.0%. The stock solutions were used to prepare the full spectrum of all possible combinations of acetic and boric acids in 96 well microtiter plates. All wells were raised to a final volume of 100 ul as required. The organisms were diluted to an approximate concentration of 10^5 cfu and 10 ul of this preparation was inolculated into each well with an 8 channel micropipeter. The microtiter plates containing the bacteria were incubated at 35.5° C. for 18 to 24 hours. The plates containing the fungi were incubated at 25° C. for 3-5 days. The presence of the growth in the wells was recorded. These values determine the Minimum Inhibitory Concentration (MIC) of the acids at individual and mixed concentrations.

Experiment [3] relates to Staphylococcus intermedius. Conditions: microtiter broth, 35.5° C., 18 to 24 hours. The protocol:
as §1

Experiment [4] concerns Pseudomonas aeruginosa. Conditions: microtiter broth, 35.5° C., 18 to 24 hours. As for the experimental part: as §1
Experiment [5] has as its system vulvovaginal candidiasis. Conditions: in vivo; cited from earlier work.
Experiment [6] has as its system fungi causing otomycosis. The note with it: in vitro, five fungi; cited from earlier work.

The structures appear in SMILES notation.

Regarding `OB(O)O` [Boric acid, boric acid], the “activity against Candida albicans” value in experiment [1] was “fungistatic”. For the same compound, the growth inhibition result in experiment [2], in experiment [3] and in experiment [4] was “inhibited” throughout. The “efficacy in treating vulvovaginal candidiasis” value in experiment [5] is given as “effective”.
On to `CC(=O)O` [acetic acid], for which the fungitoxic effect entry in experiment [6] is reported as “Some antifungal effect”.

The values above are taken from US6420425B1, “Method for the broad based treatment of infections especially infections of organs such as the skin and vagina” (priority 1997, dated 2002).
